Assay in all cases: SelectScreen Z-LYTE kinase activity assay (SI Table 6)
Common to all, as to type: biochemical

Assay [1] deals with protein kinases of the Z-LYTE panel (Homo sapiens, UniProt Q9P0L2). Put shortly: (§1)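 A single compound concentration of 1 μM was profiled in the vendor's Adapta, Lantha and Z-LYTE kinase assays. In gel-based follow-ups with 200 μM compound, phosphorylation was resolved on Phos-tag SDS-PAGE and quantified by Coomassie. The ATM run used 1 mM ATP with GST-p53 for 30 min, and the mTORC1 run used 250 μM ATP with 4E-BP1 for 3 h.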
Chain of protein kinases of the Z-LYTE panel (Homo sapiens, UniProt Q9P0L2) (Q9P0L2 whole entry): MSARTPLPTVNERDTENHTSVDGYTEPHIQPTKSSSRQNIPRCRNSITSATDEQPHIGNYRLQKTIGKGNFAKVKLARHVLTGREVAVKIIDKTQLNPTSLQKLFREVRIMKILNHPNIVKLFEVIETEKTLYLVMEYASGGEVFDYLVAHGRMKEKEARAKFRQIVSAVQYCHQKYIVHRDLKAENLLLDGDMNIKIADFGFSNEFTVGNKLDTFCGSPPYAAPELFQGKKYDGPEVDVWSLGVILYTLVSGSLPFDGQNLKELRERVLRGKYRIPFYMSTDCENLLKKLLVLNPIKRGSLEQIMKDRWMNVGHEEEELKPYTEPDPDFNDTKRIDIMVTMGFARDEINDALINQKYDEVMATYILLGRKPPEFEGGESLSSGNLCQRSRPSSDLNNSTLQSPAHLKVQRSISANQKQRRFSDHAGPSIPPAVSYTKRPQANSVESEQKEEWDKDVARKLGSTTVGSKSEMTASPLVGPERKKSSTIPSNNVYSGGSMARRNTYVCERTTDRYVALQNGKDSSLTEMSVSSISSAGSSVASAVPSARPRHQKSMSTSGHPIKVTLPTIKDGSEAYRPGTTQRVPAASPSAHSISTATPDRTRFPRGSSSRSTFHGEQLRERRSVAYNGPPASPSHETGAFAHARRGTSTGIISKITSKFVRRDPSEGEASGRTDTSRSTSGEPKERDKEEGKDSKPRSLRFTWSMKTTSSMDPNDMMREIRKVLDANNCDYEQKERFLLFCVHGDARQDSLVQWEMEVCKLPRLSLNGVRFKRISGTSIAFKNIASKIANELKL

Assay [2] concerns the target protein kinases of the Z-LYTE panel (Homo sapiens, UniProt P31749). In outline:
as §1

For assay [3], the target named is protein kinases of the Z-LYTE panel (Homo sapiens, UniProt P00519). Put shortly: as §1
Chain of protein kinases of the Z-LYTE panel (Homo sapiens, UniProt P00519) (P00519 whole entry): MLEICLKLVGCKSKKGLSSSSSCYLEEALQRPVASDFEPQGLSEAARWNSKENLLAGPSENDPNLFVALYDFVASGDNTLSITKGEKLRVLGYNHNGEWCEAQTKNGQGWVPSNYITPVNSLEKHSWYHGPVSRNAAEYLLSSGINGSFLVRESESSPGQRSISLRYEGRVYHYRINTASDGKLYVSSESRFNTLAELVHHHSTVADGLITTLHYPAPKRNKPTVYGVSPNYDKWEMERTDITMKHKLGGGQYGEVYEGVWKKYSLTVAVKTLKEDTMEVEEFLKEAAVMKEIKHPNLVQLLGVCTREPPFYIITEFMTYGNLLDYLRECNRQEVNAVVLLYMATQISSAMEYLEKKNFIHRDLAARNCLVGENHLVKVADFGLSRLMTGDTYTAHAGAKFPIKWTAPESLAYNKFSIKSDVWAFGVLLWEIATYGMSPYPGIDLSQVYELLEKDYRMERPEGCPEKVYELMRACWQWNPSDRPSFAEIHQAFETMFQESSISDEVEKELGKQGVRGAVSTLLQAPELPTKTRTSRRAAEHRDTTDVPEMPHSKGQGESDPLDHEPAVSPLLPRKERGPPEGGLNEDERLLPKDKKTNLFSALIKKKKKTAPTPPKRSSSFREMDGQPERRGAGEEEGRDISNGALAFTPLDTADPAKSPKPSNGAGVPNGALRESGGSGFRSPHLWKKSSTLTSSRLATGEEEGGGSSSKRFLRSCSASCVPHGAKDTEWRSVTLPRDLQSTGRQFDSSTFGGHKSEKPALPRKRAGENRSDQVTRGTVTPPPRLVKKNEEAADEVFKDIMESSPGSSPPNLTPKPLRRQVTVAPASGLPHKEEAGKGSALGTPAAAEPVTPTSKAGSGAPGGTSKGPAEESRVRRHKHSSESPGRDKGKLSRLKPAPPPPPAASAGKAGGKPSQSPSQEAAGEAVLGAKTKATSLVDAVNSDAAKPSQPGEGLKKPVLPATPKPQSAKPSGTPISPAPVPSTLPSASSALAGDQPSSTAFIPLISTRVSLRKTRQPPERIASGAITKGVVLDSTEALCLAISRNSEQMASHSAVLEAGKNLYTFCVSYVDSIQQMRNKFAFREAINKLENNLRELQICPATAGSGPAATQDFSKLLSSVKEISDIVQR
The target of assay [4] is protein kinases of the Z-LYTE panel (Homo sapiens, UniProt P07947). Put shortly: as §1
Assay [5] concerns the target T1, protein kinases of the Z-LYTE panel (Homo sapiens, UniProt P43403).
T1 sequence (P43403 1-619): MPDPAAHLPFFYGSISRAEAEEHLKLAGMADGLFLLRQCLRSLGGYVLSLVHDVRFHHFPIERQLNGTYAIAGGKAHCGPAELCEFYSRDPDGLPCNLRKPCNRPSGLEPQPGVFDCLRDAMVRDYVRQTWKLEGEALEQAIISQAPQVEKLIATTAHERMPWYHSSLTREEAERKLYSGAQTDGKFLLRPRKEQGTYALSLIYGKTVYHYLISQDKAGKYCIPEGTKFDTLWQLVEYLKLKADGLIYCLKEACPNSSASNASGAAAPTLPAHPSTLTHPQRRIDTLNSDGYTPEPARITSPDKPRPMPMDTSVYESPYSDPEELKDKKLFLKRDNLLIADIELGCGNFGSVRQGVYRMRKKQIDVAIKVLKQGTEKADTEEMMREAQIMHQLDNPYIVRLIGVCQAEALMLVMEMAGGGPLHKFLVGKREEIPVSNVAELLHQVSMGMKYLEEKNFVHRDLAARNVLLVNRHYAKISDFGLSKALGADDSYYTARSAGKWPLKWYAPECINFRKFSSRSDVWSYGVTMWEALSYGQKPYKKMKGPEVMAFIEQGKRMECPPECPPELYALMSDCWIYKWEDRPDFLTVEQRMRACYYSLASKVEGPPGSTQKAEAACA
In outline:
as §1

In assay [6] the target is T2, protein kinases of the Z-LYTE panel (Homo sapiens, UniProt Q06418).
T2 sequence (Q06418 41-890): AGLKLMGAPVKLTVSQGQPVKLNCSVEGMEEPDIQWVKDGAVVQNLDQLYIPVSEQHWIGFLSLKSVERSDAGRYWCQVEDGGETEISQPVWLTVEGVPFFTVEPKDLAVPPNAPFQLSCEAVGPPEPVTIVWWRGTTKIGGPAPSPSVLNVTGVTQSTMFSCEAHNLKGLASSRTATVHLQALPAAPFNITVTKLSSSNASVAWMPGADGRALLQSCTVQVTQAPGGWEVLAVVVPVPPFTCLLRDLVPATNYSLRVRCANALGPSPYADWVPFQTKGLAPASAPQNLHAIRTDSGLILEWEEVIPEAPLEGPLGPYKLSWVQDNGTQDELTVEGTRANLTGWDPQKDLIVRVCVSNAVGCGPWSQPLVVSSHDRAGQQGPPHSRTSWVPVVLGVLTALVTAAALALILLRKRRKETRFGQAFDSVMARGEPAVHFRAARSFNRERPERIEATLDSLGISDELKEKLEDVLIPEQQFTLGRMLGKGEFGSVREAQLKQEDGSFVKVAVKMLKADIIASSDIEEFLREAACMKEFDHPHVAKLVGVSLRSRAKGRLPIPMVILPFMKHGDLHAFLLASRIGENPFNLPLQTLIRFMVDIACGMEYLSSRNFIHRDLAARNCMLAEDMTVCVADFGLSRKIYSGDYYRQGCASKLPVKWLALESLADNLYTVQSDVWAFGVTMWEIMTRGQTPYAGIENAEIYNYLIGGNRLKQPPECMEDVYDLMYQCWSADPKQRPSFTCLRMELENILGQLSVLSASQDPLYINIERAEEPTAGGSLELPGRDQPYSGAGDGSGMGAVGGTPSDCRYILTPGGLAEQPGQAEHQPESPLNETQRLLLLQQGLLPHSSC
In outline:
as §1

Assay [7] concerns the target protein kinases of the Z-LYTE panel (Homo sapiens, UniProt P08922). In outline: as §1

Like-named read-outs stand apart in the source and are kept apart here.

Chain of protein kinases of the Z-LYTE panel (Homo sapiens, UniProt P08922) (P08922 28-2347): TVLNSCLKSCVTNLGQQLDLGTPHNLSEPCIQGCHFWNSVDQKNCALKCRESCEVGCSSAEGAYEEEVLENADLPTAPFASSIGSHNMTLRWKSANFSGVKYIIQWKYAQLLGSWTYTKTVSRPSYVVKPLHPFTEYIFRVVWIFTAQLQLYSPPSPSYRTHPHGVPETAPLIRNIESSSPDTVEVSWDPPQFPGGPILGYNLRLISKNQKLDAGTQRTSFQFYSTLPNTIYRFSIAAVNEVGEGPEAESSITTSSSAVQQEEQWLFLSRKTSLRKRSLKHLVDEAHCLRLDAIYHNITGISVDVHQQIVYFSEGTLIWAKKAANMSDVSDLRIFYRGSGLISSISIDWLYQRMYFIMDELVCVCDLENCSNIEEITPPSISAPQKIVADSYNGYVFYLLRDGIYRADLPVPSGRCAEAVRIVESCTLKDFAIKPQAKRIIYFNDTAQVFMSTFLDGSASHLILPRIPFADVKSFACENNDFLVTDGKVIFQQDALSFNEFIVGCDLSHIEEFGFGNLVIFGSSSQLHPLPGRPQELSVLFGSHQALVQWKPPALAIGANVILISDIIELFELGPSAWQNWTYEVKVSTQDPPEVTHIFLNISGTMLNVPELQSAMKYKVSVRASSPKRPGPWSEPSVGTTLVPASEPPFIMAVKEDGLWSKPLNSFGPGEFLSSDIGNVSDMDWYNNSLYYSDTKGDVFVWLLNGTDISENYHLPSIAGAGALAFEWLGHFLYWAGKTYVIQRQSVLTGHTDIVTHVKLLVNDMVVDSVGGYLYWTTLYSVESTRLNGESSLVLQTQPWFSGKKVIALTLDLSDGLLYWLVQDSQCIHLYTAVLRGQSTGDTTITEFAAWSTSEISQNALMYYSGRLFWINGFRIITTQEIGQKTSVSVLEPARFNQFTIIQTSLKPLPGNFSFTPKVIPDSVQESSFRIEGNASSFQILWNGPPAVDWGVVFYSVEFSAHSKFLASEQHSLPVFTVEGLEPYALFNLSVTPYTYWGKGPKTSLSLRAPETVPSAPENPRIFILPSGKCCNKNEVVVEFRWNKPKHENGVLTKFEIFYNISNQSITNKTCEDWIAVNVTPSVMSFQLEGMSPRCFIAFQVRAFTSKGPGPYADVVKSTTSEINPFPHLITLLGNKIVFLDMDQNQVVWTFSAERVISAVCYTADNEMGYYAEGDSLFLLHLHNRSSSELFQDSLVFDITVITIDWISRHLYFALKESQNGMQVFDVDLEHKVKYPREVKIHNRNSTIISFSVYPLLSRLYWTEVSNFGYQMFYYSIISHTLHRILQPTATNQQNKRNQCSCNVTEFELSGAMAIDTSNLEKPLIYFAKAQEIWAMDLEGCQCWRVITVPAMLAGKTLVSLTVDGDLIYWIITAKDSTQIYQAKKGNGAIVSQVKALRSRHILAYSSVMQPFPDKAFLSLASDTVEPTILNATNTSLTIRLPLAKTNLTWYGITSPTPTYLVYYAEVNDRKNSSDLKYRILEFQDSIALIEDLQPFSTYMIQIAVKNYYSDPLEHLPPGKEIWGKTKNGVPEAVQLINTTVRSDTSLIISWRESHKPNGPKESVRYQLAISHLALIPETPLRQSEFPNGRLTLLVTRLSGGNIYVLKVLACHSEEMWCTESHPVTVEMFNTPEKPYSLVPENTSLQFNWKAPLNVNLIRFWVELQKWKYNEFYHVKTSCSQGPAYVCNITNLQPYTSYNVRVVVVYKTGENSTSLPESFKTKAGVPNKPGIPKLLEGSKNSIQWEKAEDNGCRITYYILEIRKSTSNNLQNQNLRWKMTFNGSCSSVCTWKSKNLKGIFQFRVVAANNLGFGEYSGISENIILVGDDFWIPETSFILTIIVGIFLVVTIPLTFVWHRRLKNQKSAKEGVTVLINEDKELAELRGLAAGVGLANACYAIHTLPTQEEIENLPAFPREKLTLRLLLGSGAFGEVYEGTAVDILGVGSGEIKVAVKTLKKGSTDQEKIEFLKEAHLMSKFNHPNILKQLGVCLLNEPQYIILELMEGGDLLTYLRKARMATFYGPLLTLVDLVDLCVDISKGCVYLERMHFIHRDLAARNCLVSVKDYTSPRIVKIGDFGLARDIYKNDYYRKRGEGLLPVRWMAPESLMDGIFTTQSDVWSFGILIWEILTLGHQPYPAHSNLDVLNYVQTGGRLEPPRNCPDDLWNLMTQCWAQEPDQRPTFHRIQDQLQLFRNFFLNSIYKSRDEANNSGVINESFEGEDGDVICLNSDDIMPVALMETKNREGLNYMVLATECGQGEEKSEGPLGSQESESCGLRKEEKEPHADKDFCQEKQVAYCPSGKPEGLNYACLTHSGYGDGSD
Chain of protein kinases of the Z-LYTE panel (Homo sapiens, UniProt P31749) (P31749 whole entry): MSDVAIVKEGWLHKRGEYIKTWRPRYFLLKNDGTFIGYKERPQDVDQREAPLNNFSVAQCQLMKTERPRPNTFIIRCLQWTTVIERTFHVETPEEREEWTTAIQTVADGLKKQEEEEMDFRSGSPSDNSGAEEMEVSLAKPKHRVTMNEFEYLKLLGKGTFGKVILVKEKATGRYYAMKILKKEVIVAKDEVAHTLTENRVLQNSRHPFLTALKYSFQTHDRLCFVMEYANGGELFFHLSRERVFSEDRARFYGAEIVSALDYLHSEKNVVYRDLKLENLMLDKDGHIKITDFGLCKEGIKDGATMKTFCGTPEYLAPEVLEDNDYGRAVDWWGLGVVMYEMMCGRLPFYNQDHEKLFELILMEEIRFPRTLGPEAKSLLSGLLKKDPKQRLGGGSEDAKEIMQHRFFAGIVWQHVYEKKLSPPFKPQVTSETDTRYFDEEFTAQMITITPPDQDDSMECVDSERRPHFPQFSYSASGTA

The term inhibition denotes the change of the read-out against control, counted positive when it falls. For the compound `CCN1CCN(c2ccc(Nc3cc(Nc4cccc5c4N(C(C)=O)CC5)ccn3)cc2)CC1` [Compound 1938], the inhibition at 1 µM is 5.55% in assay [1] (read-out: % Inhibition Point 1); 3.46% in assay [1] (read-out: % Inhibition Point 2); 4.5% in assay [1] (read-out: % Inhibition mean); 4.32% in assay [2] (read-out: % Inhibition Point 1); 3.3% in assay [2] (read-out: % Inhibition Point 2); 4% in assay [2] (read-out: % Inhibition mean). Further, the inhibition at 1 µM amounted to 16% in assay [3] (read-out: % Inhibition Point 1); 17% in assay [3] (read-out: % Inhibition Point 2); 16% in assay [3] (read-out: % Inhibition mean); 27% in assay [4] (read-out: % Inhibition Point 1); 30% in assay [4] (read-out: % Inhibition Point 2); 29% in assay [4] (read-out: % Inhibition mean). Further, the inhibition at 1 µM in assay [5] (read-out: % Inhibition Point 1) was 3%; in assay [5] (read-out: % Inhibition Point 2) it was -4.63%; in assay [5] (read-out: % Inhibition mean), -0.814%; in assay [6] (read-out: % Inhibition Point 1), 8%; in assay [6] (read-out: % Inhibition Point 2), 7.56%; in assay [6] (read-out: % Inhibition mean), 7.59%. Also, the values for the inhibition at 1 µM in assay [7] (read-out: % Inhibition Point 1), in assay [7] (read-out: % Inhibition Point 2) and in assay [7] (read-out: % Inhibition mean) were 19%, 22% and 21%, respectively.

For the origin of these results see article PMC7614683, “A small molecule PI3Kα activator for cardioprotection and neuroregeneration” (Nature, 2023).
